Data: patent publication US7288567B2, “Inhibitors of histone deacetylase” (Methylgene Inc., priority 2000, dated 2007)

What was measured:
[1] = test system: histone deacetylase enzyme in nuclear extracts from H446 cells (pooled HDACs); assay: Histone deacetylase inhibition, H446 nuclear extracts (pooled HDACs); assay type: biochemical, human; details: for IC50: H446 nuclear extract, [3H]-acetylated histone substrate; for pooled HDACs percent inhibition: percent inhibition at 20 μM (footnote)
Method: HDAC inhibitors were screened against histone deacetylase enzyme in nuclear extracts prepared from the human small cell lung cancer cell line H446 (ATTC HTB-171) and against a cloned recombinant human HDAC-1 enzyme expressed and purified from a Baculovirus insect cell expression system.
(§1) For deacetylase assays, 20,000 cpm of the [^3H]-metabolically labeled acetylated histone substrate (M. Yoshida et al., J. Biol. Chem. 265(28): 17174-17179 (1990)) was incubated with 30 μg of H446 nuclear extract or an equivalent amount of the cloned recombinant hHDAC-1 for 10 minutes at 37° C. The reaction was stopped by adding acetic acid (0.04 M, final concentration) and HCl (250 mM, final concentration). The mixture was extracted with ethyl acetate and the released [^3H]-acetic acid was quantified by scintillation counting. For inhibition studies, the enzyme was preincubated with compounds at 4° C. for 30 minutes prior to initiation of the enzymatic assay. IC50 values for HDAC enzyme inhibitors were determined by performing dose response curves with individual compounds and determining the concentration of inhibitor producing fifty percent of the maximal inhibition.

[2] = target: T1, recombinant human HDAC-1 enzyme (rHDAC-1) (Homo sapiens, UniProt Q13547); assay: Histone deacetylase inhibition, recombinant human HDAC-1; assay type: biochemical; details: cloned recombinant human HDAC-1, Baculovirus insect cell expression; read-out: rHDAC-1 IC50
T1 construct: made in house; host or cells: Baculovirus insect cell expression system
Method: as §1, with “The” for “For deacetylase assays, 20,000 cpm of the [^3H]-metabolically labeled acetylated histone substrate (M. Yoshida et al., J. Biol. Chem. 265(28): 17174-17179 (1990)) was incubated with 30 μg of H446 nuclear extract or an equivalent amount of the cloned recombinant hHDAC-1 for 10 minutes at 37° C. The”

T1 sequence (Q13547 whole entry): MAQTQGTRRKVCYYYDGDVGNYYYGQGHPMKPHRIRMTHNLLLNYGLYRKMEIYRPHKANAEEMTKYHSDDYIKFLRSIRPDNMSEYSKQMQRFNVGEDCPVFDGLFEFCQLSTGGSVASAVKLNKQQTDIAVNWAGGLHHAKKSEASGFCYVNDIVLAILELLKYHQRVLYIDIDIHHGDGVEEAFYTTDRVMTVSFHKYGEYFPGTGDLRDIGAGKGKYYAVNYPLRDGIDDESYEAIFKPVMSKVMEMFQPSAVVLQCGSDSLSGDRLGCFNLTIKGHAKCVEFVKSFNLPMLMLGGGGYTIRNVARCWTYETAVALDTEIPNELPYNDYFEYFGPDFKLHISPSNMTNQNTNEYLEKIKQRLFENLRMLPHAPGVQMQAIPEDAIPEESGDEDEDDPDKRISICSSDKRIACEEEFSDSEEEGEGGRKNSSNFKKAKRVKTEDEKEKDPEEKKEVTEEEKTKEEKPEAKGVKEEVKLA

Structure (SMILES) | IC50 [1] | IC50 [2] | pooled HDACs percent inhibition @ 1 μM [1] | pooled HDACs percent inhibition [1] | pooled HDACs percent inhibition @ 5 μM ([1]; @ 5 μM)
COC(C/C=C/C=C/C(=O)NO)c1ccc(N(C)C)cc1 (centres unmarked) [Compound 17, N-Hydroxy7-methoxy-7-[4-(N,N-dimethylamino)phenyl]-2,4-heptadienamide] | 4 µM | 0.25 µM |  |  | 
O=C(CCCCCCC(=O)c1cnc2ccccc2c1)NO [Compound 141b, N-Hydroxy-7-[(3-quinolinyl)carbonyl]heptanamide] |  | 0.035 µM | 71%@ 1 μM |  | 
O=C(CCCCCCC(=NO)c1ccccc1)NO [Compound 51a, N-Hydroxy-8-oximino-8-phenyloctanamide] | 0.35 µM | 0.1 µM |  |  | 
Nc1ccccc1NC(=O)CCCCCN1C(=O)c2ccccc2C1=O [Compound 243a, N-(2-Aminophenyl)-6-(N-phthaloyl)hexanamide] |  | 1.6 µM |  | 6% | 
Nc1ccccc1NC(=O)CCCCCCC(=O)c1ccc2ccccc2c1 [Compound 63, N-(2-Aminophenyl)-7-(2-naphthoyl)heptanamide] | > 20 µM | 2.2 µM |  |  | 
Nc1ccccc1NC(=O)CCCCCCC(=O)c1cccc2ccccc12 [Compound 53f, N-(2-Aminophenyl)-7-(1-naphthoyl)heptanamide] |  | 2 µM |  | 3% | 
COc1ccc(C(=O)CCCCCCC(=O)Nc2ccccc2N)cc1 [Compound 53b, N-(2-Aminophenyl)-7-(p-anisoyl)heptanamide] |  | 1 µM |  | 0% | 
O=C(CCCCCNS(=O)(=O)c1ccccc1)NO [Compound 47, N-Hydroxy-6-(benzenesulfonylamino)hexanamide] | 4.5 µM | 0.5 µM |  |  | 
O=C(CS)CCCCCC(=O)c1cc2ccccc2s1 [Compound 161, 1-Mercapto-2,8-dioxo-8-(2-benzo[b]thiophene)-octane] | 0.094 µM | 0.071 µM |  |  | 
O=C(CCCCCn1nnc2ccccc2c1=O)NO [Compound 238b, N-Hydroxy-6-[3-(4-oxo-4H-benzo[d][1,2,3]triazinyl)]hexanamide] |  | 0.76 µM | 20%@ 1 μM |  | 
Nc1ccccc1NC(=O)NCCCCCC(=O)c1ccc(-c2ccccc2)cc1 [Compound 92, N-(2-Aminophenyl)-N′-[5-((4biphenyl)carbonyl)pentyl]urea] |  | 15.9 µM |  | 0% | 
O=C(CCCCCCC(=O)c1cccnc1)NO [Compound 141a1, N-Hydroxy-7-[(3-pyridyl)carbonyl]heptanamide] |  | 0.06 µM | 22%@ 1 μM |  | 
O=C(CCCCCCC(=O)c1cc2ccccc2s1)NO [Compound 52m, N-hydroxy-7-(2-benzothiophene)carbonylheptanamide] | 0.1 µM | 0.01 µM |  |  | 
Nc1ccccc1CNC(=O)CCCCCCC(=O)c1ccc(-c2ccccc2)cc1 [Compound 75, N-(2-Aminobenzyl)-7-[(4-biphenyl)carbonyl]heptanamide] |  | 8.4 µM |  | 0% | 
O=C(CCCCCC(=O)c1cc2ccccc2s1)NO [Compound 113, N-Hydroxy-6-[(2-benzo[b]thiophene)carbonyl]hexanamide] |  | 0.13 µM | 33%@ 1 μM |  | 
CSCC(=O)CCCCCCC(=O)c1ccccc1 [Compound 159b, 1-Methylthio-2,9-dioxo-9-phenyl-nonane] |  | 0.5 µM |  |  | 14%@ 5 μM
Nc1ccccc1NC(=O)CCCCCCC(=O)c1cc2ccccc2s1 [Compound 164, N-(2-Aminophenyl)-7-[(2-benzo[b]thiophene)carbonyl]heptanamide] |  | 2.3 µM |  | 18% | 
O=C(CCCCCCC(=O)c1ccc(Nc2ccccc2)cc1)NO [Compound 138a, N-Hydroxy-7-[4-(N-phenyl)benzoyl]heptanamide] |  | 0.004 µM | 83%@ 1 μM |  | 
CSc1ncccc1C(=O)CCCCCCC(=O)NO [Compound 105b] |  | 0.02 µM | 40%@ 1 μM |  | 
